The subject of one assay is Malme-3M. Briefly: Antiproliferative activity against human Malme-3M cells assessed as cell growth inhibition at 10 uM by SRB assay. The assay is classed as functional, cell-based.
The next assay relates to MDA-MB-435. As to the kind of experiment: Antiproliferative activity against human MDA-MB-435 cells assessed as cell growth inhibition at 10 uM by SRB assay. Format: functional, cell-based. A general note: The SRB assay estimates cell density from bound dye.
For a further assay, the system named is SK-MEL-28. Briefly: Antiproliferative activity against human SK-MEL-28 cells assessed as cell growth inhibition at 10 uM by SRB assay. Format: functional, cell-based.
The test system of the next assay is SK-MEL-5. Briefly: Antiproliferative activity against human SK-MEL-5 cells assessed as cell growth inhibition at 10 uM by SRB assay. The assay is classed as functional, cell-based.
A further assay concerns SK-MEL-2. Briefly: Antiproliferative activity against human SK-MEL-2 cells assessed as cell growth inhibition at 10 uM by SRB assay relative to control. The assay is classed as functional. The note with it: Homo sapiens, SK-MEL-2, dose 10 µM.
The subject of another assay is UACC-257. As to the kind of experiment: Antiproliferative activity against human UACC-257 cells assessed as cell growth inhibition at 10 uM by SRB assay relative to control. The assay is classed as functional.
Another assay has as its system UACC-62. As to the kind of experiment: Antiproliferative activity against human UACC-62 cells assessed as cell growth inhibition at 10 uM by SRB assay relative to control. The assay is classed as functional.
A further assay concerns M14. Briefly: Antiproliferative activity against human M14 cells assessed as cell growth inhibition at 10 uM by SRB assay relative to control. The assay is classed as functional.
The subject of a further assay is LOX IMVI. Briefly: Antiproliferative activity against human LOX IMVI cells assessed as cell growth inhibition at 10 uM by SRB assay relative to control. Format: functional.
The subject of assay [1] is RPMI-8226. As to the kind of experiment: Antiproliferative activity against human RPMI-8226 cells assessed as cell growth inhibition at 10 uM by SRB assay relative to control. The assay is classed as functional.
The next assay has as its system NCI-H460. As to the kind of experiment: Antiproliferative activity against human NCI-H460 cells assessed as cell growth inhibition at 10 uM by SRB assay relative to control. The assay is classed as functional.
The test system of the next assay is COLO 205. As to the kind of experiment: Antiproliferative activity against human COLO 205 cells assessed as cell growth inhibition at 10 uM by SRB assay. The assay is classed as functional, cell-based.
A further assay has as its system HCC 2998. Briefly: Antiproliferative activity against human HCC 2998 cells assessed as cell growth inhibition at 10 uM by SRB assay. Format: functional, cell-based.
The test system of the next assay is HCT-116. As to the kind of experiment: Antiproliferative activity against human HCT-116 cells assessed as cell growth inhibition at 10 uM by SRB assay. The assay is classed as functional, cell-based.
For a further assay, the system named is HCT-15. As to the kind of experiment: Antiproliferative activity against human HCT-15 cells assessed as cell growth inhibition at 10 uM by SRB assay. Format: functional, cell-based.
The next assay deals with HT-29. As to the kind of experiment: Antiproliferative activity against human HT-29 cells assessed as cell growth inhibition at 10 uM by SRB assay. Format: functional, cell-based.
In a further assay the test system is KM12. Briefly: Antiproliferative activity against human KM12 cells assessed as cell growth inhibition at 10 uM by SRB assay. The assay is classed as functional, cell-based.
The next assay deals with SW-620. As to the kind of experiment: Antiproliferative activity against human SW620 cells assessed as cell growth inhibition at 10 uM by SRB assay. Format: functional, cell-based.
The test system of the next assay is SNB-19. As to the kind of experiment: Antiproliferative activity against temozolomide resistant human SNB-19 cells assessed as cell growth inhibition at 10 uM by SRB assay. Format: functional, cell-based.
The next assay concerns OVCAR-4. As to the kind of experiment: Antiproliferative activity against human OVCAR-4 cells assessed as cell growth inhibition at 10 uM by SRB assay relative to control. The assay is classed as functional.
The next assay deals with OVCAR-8. Briefly: Antiproliferative activity against human OVCAR-8 cells assessed as cell growth inhibition at 10 uM by SRB assay relative to control. The assay is classed as functional.
The subject of another assay is 786-0. As to the kind of experiment: Antiproliferative activity against human 786-0 cells assessed as inhibition of cell growth at 10 uM by SRB assay relative to control. The assay is classed as functional.
The next assay deals with ACHN. Briefly: Antiproliferative activity against human ACHN cells assessed as inhibition of cell growth at 10 uM by SRB assay relative to control. The note with it: pooled result: one value given for 2 cell lines, strains, targets or settings. Format: functional.
The subject of a further assay is RXF 393. Briefly: Antiproliferative activity against human RXF 393 cells assessed as inhibition of cell growth at 10 uM by SRB assay relative to control. The assay is classed as functional.
For a further assay, the system named is SN12C. Briefly: Antiproliferative activity against human SN12C cells assessed as inhibition of cell growth at 10 uM by SRB assay relative to control. Format: functional.
In assay [2] the test system is Hs-578T. As to the kind of experiment: Antiproliferative activity against human Hs-578T cells assessed as inhibition of cell growth at 10 uM by SRB assay relative to control. Format: functional.
The next assay has as its system Renal cancer cell line. Briefly: Antiproliferative activity against human renal cancer cells assessed as cell growth inhibition at 10 uM by SRB assay relative to control. The assay is classed as functional.
In a further assay the test system is Breast carcinoma cell. Briefly: Antiproliferative activity against human breast cancer cells assessed as cell growth inhibition at 10 uM by SRB assay relative to control. The assay is classed as functional. The note with it: pooled result: one value given for 3 cell lines, strains, targets or settings.
Another assay concerns Lung cancer cell line. As to the kind of experiment: Antiproliferative activity against human lung cancer cells assessed as cell growth inhibition at 10 uM by SRB assay relative to control. The assay is classed as functional.
Assay [3] can be described thus: Antiproliferative activity against human brain cancer cells assessed as cell growth inhibition at 10 uM by SRB assay relative to control. The assay is classed as functional.
Another assay concerns CCRF-CEM. As to the kind of experiment: Antiproliferative activity against human CCRF-CEM cells assessed as cell growth inhibition at 10 uM by SRB assay. The assay is classed as functional, cell-based.
Another assay has as its system HL-60. As to the kind of experiment: Antiproliferative activity against human HL-60 cells assessed as cell growth inhibition at 10 uM by SRB assay. The assay is classed as functional, cell-based.
In the next assay the test system is K562. As to the kind of experiment: Antiproliferative activity against human K562 cells assessed as cell growth inhibition at 10 uM by SRB assay. The assay is classed as functional, cell-based.
For another assay, the system named is MOLT-4. As to the kind of experiment: Antiproliferative activity against human MOLT-4 cells assessed as cell growth inhibition at 10 uM by SRB assay. Format: functional, cell-based.
Assay [4] deals with RPMI-8226. As to the kind of experiment: Antiproliferative activity against human RPMI-8226 cells assessed as cell growth inhibition at 10 uM by SRB assay. The assay is classed as functional, cell-based.
Another assay concerns SR. As to the kind of experiment: Antiproliferative activity against human SR cells assessed as cell growth inhibition at 10 uM by SRB assay. Format: functional, cell-based.
Another assay deals with EKVX. As to the kind of experiment: Antiproliferative activity against human EKVX cells assessed as cell growth inhibition at 10 uM by SRB assay. The assay is classed as functional.
In another assay the test system is HOP-92. Briefly: Antiproliferative activity against human HOP-92 cells assessed as cell growth inhibition at 10 uM by SRB assay. The assay is classed as functional, cell-based.
In the next assay the test system is NCI-H226. Briefly: Antiproliferative activity against human NCI-H226 cells assessed as cell growth inhibition at 10 uM by SRB assay. The assay is classed as functional.
For the next assay, the system named is NCI-H23. Briefly: Antiproliferative activity against human NCI-H23 cells assessed as cell growth inhibition at 10 uM by SRB assay. Format: functional.
The next assay concerns NCI-H522. As to the kind of experiment: Antiproliferative activity against human NCI-H522 cells assessed as cell growth inhibition at 10 uM by SRB assay. The assay is classed as functional, cell-based.
A further assay relates to SF-295. Briefly: Antiproliferative activity against human SF-295 cells assessed as cell growth inhibition at 10 uM by SRB assay. The assay is classed as functional, cell-based.
For another assay, the system named is UO-31. As to the kind of experiment: Antiproliferative activity against human UO-31 cells assessed as inhibition of cell growth at 10 uM by SRB assay relative to control. Format: functional.
The subject of the next assay is PC-3. Briefly: Antiproliferative activity against human PC-3 cells assessed as inhibition of cell growth at 10 uM by SRB assay. Format: functional, cell-based.
The test system of a further assay is DU-145. Briefly: Antiproliferative activity against human DU-145 cells assessed as inhibition of cell growth at 10 uM by SRB assay relative to control. Format: functional.
The test system of assay [5] is Hs-578T. Briefly: Antiproliferative activity against human Hs-578T cells assessed as inhibition of cell growth at 10 uM by SRB assay. The assay is classed as functional, cell-based.

Broadly, the inhibition is the drop in the measured response relative to a control, in per cent.

Molecules are shown by their SMILES. Calls of active or inactive are those of the source. The calls are words filed in the database; no cut-off is given here.

On to `CN(C)/N=N/c1[nH]cnc1C(N)=O` [DACARBAZINE], for which the inhibition result in the assay on Malme-3M, with MDA-MB-435, in the assay on SK-MEL-28 and in the assay with SK-MEL-5 was “inactive” throughout. Also, the inhibition at 10 µM in the assay on SK-MEL-2 came out at 15%; in the assay on UACC-257, 15%; in the assay on UACC-62, 25.6%; in the assay on M14, 36.5%; in the assay on LOX IMVI, 49.3%.
Consider `COc1cc2oc(-c3cccc(C(=O)Nc4ccc(Cl)cc4)c3)cc(=O)c2c(O)c1OC`, for which the inhibition at 10 µM with RPMI-8226 [1] amounted to 82.6%; in the assay with NCI-H460 it was 79.5%; in the assay with UACC-62, 57.3%; with OVCAR-4 it was 130%; in the assay on OVCAR-8 it was 83.7%; in the assay on 786-0, 53%. Moreover, the inhibition at 10 µM in the assay on ACHN is 53%; with RXF 393, 53%; in the assay on SN12C, 53%; in the assay with Hs-578T [2] it was 93.3%; in the assay on Renal cancer cell line, > 50%; in the assay with Breast carcinoma cell, > 50%. Also, the inhibition at 10 µM (with Lung cancer cell line; in assay [3]) was > 50% in each case. For the same compound, the inhibition result in the assay with COLO 205, in the assay with HCC 2998, in the assay with HCT-116, in the assay on HCT-15, with HT-29 and in the assay on KM12 was “Active” each time. Besides, the inhibition result in the assay on SW-620 and in the assay with SNB-19 was “Active” each time.
With `COc1cc2oc(-c3ccc(NC(=O)c4ccccc4Br)cc3)cc(=O)c2c(OC)c1OC`, the inhibition result in the assay with CCRF-CEM, with HL-60, with K562, in the assay with MOLT-4, in the assay with RPMI-8226 [4] and in the assay with SR was “Active” each time. For the same compound, the inhibition entry in the assay with HOP-92, in the assay with NCI-H522, with SF-295, with UO-31, with PC-3 and with Hs-578T [5] was “Active” in each case. The inhibition at 10 µM in the assay on EKVX is < 50%; in the assay with NCI-H226, < 50%; with NCI-H23, < 50%; with DU-145, 29.6%.

Source of the values: ChEMBL document CHEMBL5260845, “Flavone-based arylamides as potential anticancers: Design, synthesis and in vitro cell-based/cell-free evaluations” (2020).
